{"source": "patent US10604554B2", "about": "“Double-acylated GLP-1 derivatives” (Novo Nordisk A/S, priority 2012, dated 2020)"}
{"biological_target": "T1, human GLP-1 receptor (Homo sapiens, UniProt P43220)", "T1 construct": "expressed in transfected cells; host or cells: BHK cells, clone FCW467-12A/KZ10-1 (parent line BHKTS13), further transfected with CRE luciferase", "T1 sequence (P43220 24-463)": "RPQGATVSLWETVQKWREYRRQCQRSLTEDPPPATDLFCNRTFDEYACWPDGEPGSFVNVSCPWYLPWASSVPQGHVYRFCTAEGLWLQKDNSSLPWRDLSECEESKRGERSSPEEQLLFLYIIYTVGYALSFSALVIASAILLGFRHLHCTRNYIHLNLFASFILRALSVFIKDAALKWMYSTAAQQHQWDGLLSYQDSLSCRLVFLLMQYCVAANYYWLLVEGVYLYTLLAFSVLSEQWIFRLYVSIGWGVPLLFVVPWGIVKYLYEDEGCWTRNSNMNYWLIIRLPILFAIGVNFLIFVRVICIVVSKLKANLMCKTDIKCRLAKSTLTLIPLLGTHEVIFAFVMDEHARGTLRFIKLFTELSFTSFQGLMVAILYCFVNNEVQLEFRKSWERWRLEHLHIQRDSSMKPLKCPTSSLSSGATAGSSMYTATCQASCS", "test": "In vitro potency (AlphaScreen cAMP, membranes)", "type": "biochemical", "protocol": "The purpose of this example is to test the activity, or potency, of the GLP-1 derivatives in vitro.\nPurified plasma membranes from a stable transfected cell line, BHK467-12A (tk-ts13), expressing the human GLP-1 receptor were stimulated with the GLP-1 analogue or derivative in question, and the potency of cAMP production was measured using the AlphaScreen™ cAMP Assay Kit from Perkin Elmer Life Sciences. The basic principle of the AlphaScreen Assay is a competition between endogenous cAMP and exogenously added biotin-cAMP. The capture of cAMP is achieved by using a specific antibody conjugated to acceptor beads.\nA stable transfected cell line and a high expressing clone were selected for screening. The cells were grown at 5% CO2 in DMEM, 5% FCS, 1% Pen/Strep (Penicillin/Streptomycin) and 0.5 mg/ml of the selection marker G418.\nCells at approximately 80% confluence were washed 2× with PBS and harvested with Versene (aqueous solution of the tetrasodium salt of ethylenediaminetetraacetic acid), centrifuged 5 min at 1000 rpm and the supernatant removed. The additional steps were all performed on ice. The cell pellet was homogenised by the Ultrathurax for 20-30 s in 10 ml of Buffer 1 (20 mM Na-HEPES, 10 mM EDTA, pH=7.4), centrifuged 15 min at 20,000 rpm and the pellet resuspended in 10 ml of Buffer 2 (20 mM Na-HEPES, 0.1 mM EDTA, pH=7.4). The suspension was homogenised for 20-30 s and centrifuged 15 min at 20,000 rpm. Suspension in Buffer 2, homogenisation and centrifugation was repeated once and the membranes were resuspended in Buffer 2. The protein concentration was determined and the membranes stored at −80° C. until use.\nThe assay was performed in flat-bottom 96-well plates (Costar cat. no:3693). The final volume per well was 50 μl.\nAlphaScreen cAMP Assay Kit from Perkin Elmer Life Sciences (cat. No: 6760625M); containing Anti-cAMP Acceptor beads (10 U/μl), Streptavidin Donor beads (10 U/μl) and Biotinylated-cAMP (133 U/μl).\nAlphaScreen Buffer, pH=7.4: 50 mM TRIS-HCl (Sigma, cat.no: T3253); 5 mM HEPES (Sigma, cat.no: H3375); 10 mM MgCl2, 6H2O (Merck, cat.no: 5833); 150 mM NaCl (Sigma, cat.no: S9625); 0.01% Tween (Merck, cat.no: 822184). The following was added to the AlphaScreen Buffer prior to use (final concentrations indicated): BSA (Sigma, cat. no. A7906): 0.1%; IBMX (Sigma, cat. no. 15879): 0.5 mM; ATP (Sigma, cat. no. A7699): 1 mM; GTP (Sigma, cat. no. G8877): 1 uM.\ncAMP standard (dilution factor in assay=5): cAMP Solution: 5 μL of a 5 mM cAMP-stock+495 μL AlphaScreen Buffer.\nMembranes were prepared from hGLP-1/BHK 467-12A cells with a concentration of 6 μg/well corresponding to 0.6 mg/ml (the amount of membranes used pr. well may vary)\n“No membranes”: Acceptor Beads (15 μg/ml final) in AlphaScreen buffer\n“6 μg/well membranes”: membranes+Acceptor Beads (15 μg/ml final) in AlphaScreen buffer\nAn aliquot (10 μl) of “No membranes” was added to the cAMP standard (per well in duplicate wells) and the positive and negative controls\nAn aliquot (10 μl) of “6 μg/well membranes” was added to GLP-1 and analogues (per well in duplicate or triplicate wells)\nPos. Control: 10 μl “no membranes”+10 μl AlphaScreen Buffer\nNeg. Control: 10 μl “no membranes”+10 μl cAMP Stock Solution (50 μM)\nAs the beads are sensitive to direct light, any handling was in the dark (as dark as possible), or in green light. All dilutions were made on ice.\n1. Make the AlphaScreen Buffer.\n2. Dissolve and dilute the GLP-1/Analogues/cAMP standard in AlphaScreen Buffer.\n3. Make the Donor Beads Solution by mixing streptavidin donor beads (2 units/well) and biotinylated cAMP (1.2 units/well) and incubate 20-30 min in the dark at room temperature\n4. Add the cAMP/GLP-1/Analogues to the plate: 10 μl per well.\n5. Prepare membrane/Acceptor Beads solution and add this to the plates: 10 μl per well.\n6. Add the Donor Beads: 30 μl per well.\n7. Wrap the plate in aluminum foil and incubate on the shaker for 3 hours (very slowly) at RT.", "units": {"EC50": "nM"}}
{"smiles": "CC[C@H](C)[C@H](NC(=O)[C@H](Cc1ccccc1)NC(=O)[C@H](CCC(=O)O)NC(=O)[C@H](CCCCNC(=O)[C@@H](N)CCCCNC(=O)COCCOCCNC(=O)COCCOCCNC(=O)CC[C@H](NC(=O)CCCCCCCCCCCOc1ccc(C(=O)O)cc1)C(=O)O)NC(=O)[C@H](C)NC(=O)[C@H](C)NC(=O)[C@H](CCC(N)=O)NC(=O)CNC(=O)[C@H](CCC(=O)O)NC(=O)[C@H](CC(C)C)NC(=O)[C@H](Cc1ccc(O)cc1)NC(=O)[C@H](CO)NC(=O)[C@H](CO)NC(=O)[C@@H](NC(=O)[C@H](CC(=O)O)NC(=O)[C@H](CO)NC(=O)[C@@H](NC(=O)[C@H](Cc1ccccc1)NC(=O)[C@@H](NC(=O)CNC(=O)[C@H](CCC(=O)O)NC(=O)C(C)(C)NC(=O)[C@@H](N)Cc1c[nH]cn1)[C@@H](C)O)[C@@H](C)O)C(C)C)C(=O)N[C@@H](C)C(=O)N[C@@H](Cc1c[nH]c2ccccc12)C(=O)N[C@@H](CC(C)C)C(=O)N[C@H](C(=O)N[C@@H](CCCNC(=N)N)C(=O)NCC(=O)N[C@@H](CCCNC(=N)N)C(=O)N[C@@H](CCCCNC(=O)[C@@H](N)CCCCNC(=O)COCCOCCNC(=O)COCCOCCNC(=O)CC[C@H](NC(=O)CCCCCCCCCCCOc1ccc(C(=O)O)cc1)C(=O)O)C(=O)O)C(C)C", "note": "[Example 14, N^ε26-[(2S)-2-amino-6-[[2-[2-[2-[[2-[2-[2-[[(4S)-4-carboxy-4-[12-(4-carboxyphenoxy)dodecanoylamino]butanoyl]amino]ethoxy]ethoxy]acetyl]amino]ethoxy]ethoxy]acetyl]amino]hexanoyl], N^ε37-[(2S)-2-amino-6-[[2-[2-[2-[[2-[2-[2-[[(4S)-4-carboxy-4-[12-(4-carboxyphenoxy)dodecanoylamino]butanoyl]amino]ethoxy]ethoxy]acetyl]amino]ethoxy]ethoxy]acetyl]amino]hexanoyl]-[Aib^8,Arg^34, Lys^37]-GLP-1-(7-37)-peptide]", "EC50": 0.28}
{"smiles": "CC[C@H](C)[C@H](NC(=O)[C@H](Cc1ccccc1)NC(=O)[C@H](CCC(=O)O)NC(=O)[C@H](CCCCNC(=O)[C@@H](N)CCCCNC(=O)COCCOCCNC(=O)CC[C@H](NC(=O)CC[C@H](NC(=O)CCCCCCCCCCCOc1ccc(C(=O)O)cc1)C(=O)O)C(=O)O)NC(=O)[C@H](C)NC(=O)[C@H](C)NC(=O)[C@H](CCC(N)=O)NC(=O)CNC(=O)[C@H](CCC(=O)O)NC(=O)[C@H](CC(C)C)NC(=O)[C@H](Cc1ccc(O)cc1)NC(=O)[C@H](CO)NC(=O)[C@H](CO)NC(=O)[C@@H](NC(=O)[C@H](CC(=O)O)NC(=O)[C@H](CO)NC(=O)[C@@H](NC(=O)[C@H](Cc1ccccc1)NC(=O)[C@@H](NC(=O)CNC(=O)[C@H](CCC(=O)O)NC(=O)C(C)(C)NC(=O)[C@@H](N)Cc1c[nH]cn1)[C@@H](C)O)[C@@H](C)O)C(C)C)C(=O)N[C@@H](C)C(=O)N[C@@H](Cc1c[nH]c2ccccc12)C(=O)N[C@@H](CC(C)C)C(=O)N[C@H](C(=O)N[C@@H](CCCNC(=N)N)C(=O)NCC(=O)N[C@@H](CCCNC(=N)N)C(=O)N[C@@H](CCCCNC(=O)[C@@H](N)CCCCNC(=O)COCCOCCNC(=O)CC[C@H](NC(=O)CC[C@H](NC(=O)CCCCCCCCCCCOc1ccc(C(=O)O)cc1)C(=O)O)C(=O)O)C(=O)O)C(C)C", "note": "[Example 15, N^ε26-[(2S)-2-amino-6-[[2-[2-[2-[[(4S)-4-carboxy-4-[[(4S)-4-carboxy-4-[12-(4-carboxyphenoxy)dodecanoylamino]butanoyl]amino]butanoyl]amino]ethoxy]ethoxy]acetyl]amino]hexanoyl], N^ε37-[(2S)-2-amino-6-[[2-[2-[2-[[(4S)-4-carboxy-4-[[(4S)-4-carboxy-4-[12-(4-carboxyphenoxy)dodecanoylamino]butanoyl]amino]butanoyl]amino]ethoxy]ethoxy]acetyl]amino]hexanoyl]-[Aib^8,Arg^34,Lys^37]-GLP-1-(7-37)-peptide]", "EC50": 0.155}
{"smiles": "CC[C@H](C)[C@H](NC(=O)[C@H](Cc1ccccc1)NC(=O)[C@H](CCC(=O)O)NC(=O)[C@H](CCCCNC(=O)[C@@H](N)CCCCNC(=O)[C@@H](N)CCCCNC(=O)CC[C@H](NC(=O)CC[C@H](NC(=O)CCCCCCCCCCCOc1ccc(C(=O)O)cc1)C(=O)O)C(=O)O)NC(=O)[C@H](C)NC(=O)[C@H](C)NC(=O)[C@H](CCC(N)=O)NC(=O)CNC(=O)[C@H](CCC(=O)O)NC(=O)[C@H](CC(C)C)NC(=O)[C@H](Cc1ccc(O)cc1)NC(=O)[C@H](CO)NC(=O)[C@H](CO)NC(=O)[C@@H](NC(=O)[C@H](CC(=O)O)NC(=O)[C@H](CO)NC(=O)[C@@H](NC(=O)[C@H](Cc1ccccc1)NC(=O)[C@@H](NC(=O)CNC(=O)[C@H](CCC(=O)O)NC(=O)C(C)(C)NC(=O)[C@@H](N)Cc1c[nH]cn1)[C@@H](C)O)[C@@H](C)O)C(C)C)C(=O)N[C@@H](C)C(=O)N[C@@H](Cc1c[nH]c2ccccc12)C(=O)N[C@@H](CC(C)C)C(=O)N[C@H](C(=O)N[C@@H](CCCNC(=N)N)C(=O)NCC(=O)N[C@@H](CCCNC(=N)N)C(=O)N[C@@H](CCCCNC(=O)[C@@H](N)CCCCNC(=O)[C@@H](N)CCCCNC(=O)CC[C@H](NC(=O)CC[C@H](NC(=O)CCCCCCCCCCCOc1ccc(C(=O)O)cc1)C(=O)O)C(=O)O)C(=O)O)C(C)C", "note": "[Example 16, N^ε26-[(2S)-2-amino-6-[[(2S)-2-amino-6-[[(4S)-4-carboxy-4-[[(4S)-4-carboxy-4-[12-(4-carboxyphenoxy)dodecanoylamino]butanoyl]amino]butanoyl]amino]hexanoyl]amino]hexanoyl], N^ε37-[(2S)-2-amino-6-[[(2S)-2-amino-6-[[(4S)-4-carboxy-4-[[(4S)-4-carboxy-4-[12-(4-carboxyphenoxy)dodecanoylamino]butanoyl]amino]butanoyl]amino]hexanoyl]amino]hexanoyl]-[Aib^8,Arg^34,Lys^37]-GLP-1-(7-37)-peptide]", "EC50": 0.154}
